Data reported in US5200409A, “Composition and use of substituted 1,3-dithiolo-and 1,4-dithiinoquinoxalines as an antimicrobial” (The Dow Chemical Company, priority 1992, dated 1993).
In brackets after ≈: the same amount, converted by molar mass. Read-outs that look alike come from different tables or passages of the source.

Tests used:
Bacillus subtilis (Bs) = test: Minimum inhibitory concentration (MIC) in nutrient agar; assay type: cell-based, Bacillus subtilis ATCC 8473
Method: (§1) The minimum inhibitory concentration (MIC) for the compounds listed in Table I is determined for 9 bacteria, using nutrient agar: and 7 yeast and fungi, using malt yeast agar. A one percent solution of the test compound is prepared in a mixture of acetone and water. Nutrient agar is prepared at pH 6.8, representing a neutral medium, and at pH 8.2, representing an alkaline medium. The nutrient agars are prepared by adding 23 g of nutrient agar to one-liter of deionized water. In addition, the alkaline medium is prepared by adjusting a 0.04M solution of N-[tris-(hydroxymethyl)methyl]-glycine buffered deionized water with concentrated sodium hydroxide to a pH of […]. Malt yeast agar is prepared by adding 3 g yeast extract and 45 g malt agar per liter of deionized water. The specific agar is dispensed in 30 ml aliquots into 25×200 mm test tubes, capped and autoclaved for 15 minutes at 115° C. The test tubes containing the agar are cooled in a water bath until the temperature of the agar is 48° C. Then, an appropriate amount of the one percent solution of the test compound is added (except in the controls where no compound is added) to the respective test tubes so that the final concentrations are 500, 250, 100, 50, 25, 10, 5, 2.5, 1.0 and zero parts per million of the test compound in the agar, thus having a known concentration of test compound dispersed therein. The contents of the test tubes are then transferred to respective petri plates. After drying for 24 hours, the petri plates containing nutrient agar are inoculated with bacteria and those containing malt yeast agar are inoculated with yeast and fungi.
(§2) The inoculation with bacteria is accomplished by using the following procedure. Twenty-four hour-cultures of each of the bacteria are prepared by incubating the respective bacteria in tubes containing nutrient broth for 24 hours at 30° C. in a shaker. Dilutions of each of the 24 hour-cultures are made so that nine separate suspensions (one for each of the nine test bacteria) are made, each containing 10^8 colony forming units (CFU) per ml of suspension of a particular bacteria. Aliquots of 0.3 ml of each of the bacterial suspensions are used to fill the individual wells of Steer's Replicator. For each microbial suspension, 0.3 ml was used to fill three wells (i.e., three wells of 0.3 ml each) so that for the nine different bacteria, 27 wells are filled. The Steer's Replicator is then used to inoculate both the neutral and alkaline pH nutrient agar petri plates.
(§3) The inoculated petri plates are incubated at 30° C. for 48 hours and then read to determine if the test compound which is incorporated into the agar prevented growth of the respective bacteria.
(§4) Table II lists the bacteria, yeast and fungi used in the MIC test described above along with their respective American Type Culture Collection (ATCC) identification numbers.

Escherichia coli (Ec) = test: as above; assay type: cell-based, Escherichia coli ATCC 11229
Method: as §1, §2, §3, §4

[1] = test system: Aureobasidium pullulan (Ap); test: Minimum inhibitory concentration (MIC) in malt yeast agar; assay type: cell-based, Aureobasidium pullulan ATCC 16622; conditions: read-out: Minimum Inhibitory Concentration, Ap
Method: as §1
(§5) The inoculation with the yeast and fungi is accomplished as follows. Cultures of yeast and fungi are incubated for seven days on malt yeast agar at 30° C. These cultures are used to prepare suspensions by the following procedure. A suspension of each organism is prepared by adding 10 ml of sterile saline and 10 microliters of octylphenoxy polyethoxy ethanol to the agar slant of yeast or fungi. The sterile saline/octylphenoxy polyethoxy ethanol solution is then agitated with a sterile swab to suspend the microorganism grown on the slant. Each resulting suspension is diluted into sterile saline (1 part suspension: 9 parts sterile saline). Aliquots of these dilutions are placed in individual wells of Steer's Replicator and petri plates inoculated as previously described. The petri plates are incubated at 30° C. and read after 48 hours for yeast and 72 hours for fungi.
as §4

[2] = test system: Enterobacter aerogenes (Ea); test: Minimum inhibitory concentration (MIC) in nutrient agar; assay type: cell-based, Enterobacter aerogenes ATCC 13048; conditions: Klebsiella aerogenes
Method: as §1, §2, §3, §4

Candida albicans (Ca) = test: Minimum inhibitory concentration (MIC) in malt yeast agar; assay type: cell-based, Candida albicans ATCC 10231; conditions: malt yeast agar; 30° C.; 48 hours for yeast; read-out: Minimum Inhibitory Concentration, Ca
Method: as §1, §5, §4

Proteus vulgaris (Pv) = test: Minimum inhibitory concentration (MIC) in nutrient agar; assay type: cell-based, Proteus vulgaris ATCC 881
Method: as §1, §2, §3, §4

[3] = test system: Pseudomonas aeruginosa (PRD-10); test: as above; assay type: cell-based, Pseudomonas aeruginosa ATCC 15442
Method: as §1, §2, §3, §4

[4] = test system: Staphylococcus aureus (Sa); test: as above; assay type: cell-based, Staphylococcus aureus ATCC 6538
Method: as §1, §2, §3, §4

[5] = test system: Salmonella choleraesuis (Sc); test: as above; assay type: cell-based, Salmonella choleraesuis ATCC 10708; conditions: Salmonella enterica
Method: as §1, §2, §3, §4

Trichoderma viride (Tv) = test: Minimum inhibitory concentration (MIC) in malt yeast agar; assay type: cell-based, Trichoderma viride ATCC 8678; conditions: malt yeast agar; 30° C.; 72 hours for fungi; read-out: Minimum Inhibitory Concentration, Tv
Method: as §1, §5, §4

[6] = test system: Pseudomonas aeruginosa (Pa); test: Minimum inhibitory concentration (MIC) in nutrient agar; assay type: cell-based, Pseudomonas aeruginosa ATCC 10145; conditions: 48 hours
Method: as §1, §2, §3, §4

[7] = test system: Saccharomyces cerevisiae (Sc); test: Minimum inhibitory concentration (MIC) in malt yeast agar; assay type: cell-based, Saccharomyces cerevisiae ATCC 4105; conditions: malt yeast agar, 30° C., 48 hours for yeast, read-out: Minimum Inhibitory Concentration, Sc
Method: as §1, §5, §4

Fusarium oxysporum (Fo) = test: as above; assay type: cell-based, Fusarium oxysporum ATCC 48112; conditions: malt yeast agar; 30° C.; 72 hours for fungi; read-out: Minimum Inhibitory Concentration, Fo
Method: as §1, §5, §4

[8] = test system: Klebsiella pneumoniae (Kp); test: Minimum inhibitory concentration (MIC) in nutrient agar; assay type: cell-based, Klebsiella pneumoniae ATCC 8308
Method: as §1, §2, §3, §4

[9] = test system: Penicillium chrysogenum (Pc); test: Minimum inhibitory concentration (MIC) in malt yeast agar; assay type: cell-based, Penicillium chrysogenum ATCC 9480; conditions: malt yeast agar; 30° C.; 72 hours for fungi; read-out: Minimum Inhibitory Concentration, Pc
Method: as §1, §5, §4

Aspergillus niger (An) = test: as above; assay type: cell-based, Aspergillus niger ATCC 16404; conditions: malt yeast agar; 30° C.; 72 hours for fungi; read-out: Minimum Inhibitory Concentration, An
Method: as §1, §5, §4

[10] = pH 6.8, nutrient agar, 30° C., 48 hours, read-out: Minimum Inhibitory Concentration, Bs
[11] = pH 8.2, nutrient agar, 30° C., 48 hours, read-out: Minimum Inhibitory Concentration, Bs
[12] = 48 h, pH 6.8, read-out: Minimum Inhibitory Concentration, Ec
[13] = 48 h, pH 8.2, read-out: Minimum Inhibitory Concentration, Ec
[14] = malt yeast agar, 30° C., 48 hours for yeast and 72 hours for fungi
[15] = 48 h, pH 8.2, read-out: Minimum Inhibitory Concentration, Ea
[16] = pH 6.8, nutrient agar, 30° C., 48 hours, read-out: Minimum Inhibitory Concentration, Ea
[17] = 48 h, pH 8.2, read-out: Minimum Inhibitory Concentration, Pv
[18] = pH 6.8, nutrient agar, 30° C., 48 hours, read-out: Minimum Inhibitory Concentration, Pv
[19] = 48 h, pH 8.2, read-out: Minimum Inhibitory Concentration, PRD
[20] = pH 6.8, nutrient agar, 30° C., 48 hours, read-out: Minimum Inhibitory Concentration, PRD
[21] = pH 6.8, nutrient agar, 30° C., 48 hours, read-out: Minimum Inhibitory Concentration, Sa
[22] = pH 8.2, nutrient agar, 30° C., 48 hours, read-out: Minimum Inhibitory Concentration, Sa
[23] = 48 h, pH 8.2, read-out: Minimum Inhibitory Concentration, Sc
[24] = pH 6.8, nutrient agar, 30° C., 48 hours, read-out: Minimum Inhibitory Concentration, Sc
[25] = 48 h, pH 8.2, read-out: Minimum Inhibitory Concentration, Kp
[26] = pH 6.8, nutrient agar, 30° C., 48 hours, read-out: Minimum Inhibitory Concentration, Kp

SMILES	MIC (Bacillus subtilis (Bs); [10])	MIC (Bacillus subtilis (Bs); [11])	MIC (Escherichia coli (Ec); [12])	MIC (Escherichia coli (Ec); [13])	MIC [1, 14]	MIC [2, 15]	MIC [2, 16]	MIC (Candida albicans (Ca))	MIC (Proteus vulgaris (Pv); [17])	MIC (Proteus vulgaris (Pv); [18])	MIC [3, 19]	MIC [3, 20]	MIC [4, 21]	MIC [4, 22]	MIC (Trichoderma viride (Tv))	MIC ([6]; pH 8.2, 30° C.)	MIC [7]	MIC (Fusarium oxysporum (Fo))	MIC [9]	MIC (Aspergillus niger (An))	other results
N#CC1=C(C#N)Sc2nc3cc(C(F)(F)F)ccc3nc2S1 [K, 7-trifluoromethyl-1,4-dithiino-(2,3-b)-quinoxaline-2,3-dicarbonitrile]	< 10 µg/mL	100 µg/mL (≈ 297 µM)	50 µg/mL (≈ 149 µM)	> 500 µg/mL	< 10 µg/mL	> 500 µg/mL	250 µg/mL (≈ 743 µM)	< 10 µg/mL	> 500 µg/mL	50 µg/mL (≈ 149 µM)	> 500 µg/mL	250 µg/mL (≈ 743 µM)	25 µg/mL (≈ 74.3 µM)	100 µg/mL (≈ 297 µM)	25 µg/mL (≈ 74.3 µM)	> 500 µg/mL	< 10 µg/mL	25 µg/mL (≈ 74.3 µM)	25 µg/mL (≈ 74.3 µM)	25 µg/mL (≈ 74.3 µM)	MIC [5, 23]: > 500 µg/mL; MIC [5, 24]: 50 µg/mL (≈ 149 µM); MIC ([8]; 48 h, pH 6.8, read-out: Minimum Inhibitory Concentration, Kp): 50 µg/mL (≈ 149 µM); MIC [8, 25]: > 500 µg/mL
N#CC(C#N)=C1Sc2nc3cc(Cl)c([N+](=O)[O-])cc3nc2S1 [Q, 6-chloro-7-nitro-1,3-dithiolo-(4,5-b)-quinoxaline-2-ylidene-propanedinitrile]	–	–	> 500 µg/mL	> 500 µg/mL	–	> 500 µg/mL	–	500 µg/mL (≈ 1440 µM)	> 500 µg/mL	–	> 500 µg/mL	–	> 500 µg/mL	–	> 500 µg/mL	> 500 µg/mL	500 µg/mL (≈ 1440 µM)	> 500 µg/mL	500 µg/mL (≈ 1440 µM)	500 µg/mL (≈ 1440 µM)	MIC (Bacillus subtilis (Bs); 48 h, pH 6.8, read-out: Minimum Inhibitory Concentration, Bs): > 500 µg/mL; MIC (Bacillus subtilis (Bs); 48 h, pH 8.2, read-out: Minimum Inhibitory Concentration, Bs): > 500 µg/mL; MIC [1]: 50 µg/mL (≈ 144 µM); MIC ([2]; 48 h, pH 6.8, read-out: Minimum Inhibitory Concentration, Ea): > 500 µg/mL; MIC (Proteus vulgaris (Pv); 48 h, pH 6.8, read-out: Minimum Inhibitory Concentration, Pv): > 500 µg/mL; MIC ([3]; 48 h, pH 6.8, read-out: Minimum Inhibitory Concentration, PRD): > 500 µg/mL; MIC ([4]; 48 h, pH 8.2, read-out: Minimum Inhibitory Concentration, Sa): > 500 µg/mL; MIC ([5]; 48 h, pH 6.8, read-out: Minimum Inhibitory Concentration, Sc): > 500 µg/mL; MIC [5, 23]: > 500 µg/mL; MIC ([6]; pH 6.8, 30° C.): > 500 µg/mL; MIC [8, 25]: > 500 µg/mL; MIC [8, 26]: > 500 µg/mL
Cc1cc2nc3c(nc2cc1[N+](=O)[O-])SC(C#N)=C(C#N)S3 [F, 7-nitro-8-methyl-1,4-dithiino-(2,3-b)-quinoxaline-2,3-dicarbonitrile]	< 10 µg/mL	50 µg/mL (≈ 153 µM)	–	> 500 µg/mL	< 10 µg/mL	–	500 µg/mL (≈ 1530 µM)	< 10 µg/mL	–	50 µg/mL (≈ 153 µM)	–	> 500 µg/mL	–	50 µg/mL (≈ 153 µM)	25 µg/mL (≈ 76.4 µM)	> 500 µg/mL	< 10 µg/mL	< 10 µg/mL	< 10 µg/mL	< 10 µg/mL	MIC (Escherichia coli (Ec); pH 6.8, nutrient agar, 30° C., 48 hours, read-out: Minimum Inhibitory Concentration, Ec): 250 µg/mL (≈ 764 µM); MIC ([2]; pH 8.2, nutrient agar, 30° C., 48 hours, read-out: Minimum Inhibitory Concentration, Ea): > 500 µg/mL; MIC (Proteus vulgaris (Pv); pH 8.2, nutrient agar, 30° C., 48 hours, read-out: Minimum Inhibitory Concentration, Pv): > 500 µg/mL; MIC ([3]; pH 8.2, nutrient agar, 30° C., 48 hours, read-out: Minimum Inhibitory Concentration, PRD): > 500 µg/mL; MIC ([4]; 48 h, pH 6.8, read-out: Minimum Inhibitory Concentration, Sa): < 10 µg/mL; MIC [5, 24]: 250 µg/mL (≈ 764 µM); MIC ([5]; pH 8.2, nutrient agar, 30° C., 48 hours, read-out: Minimum Inhibitory Concentration, Sc): > 500 µg/mL; MIC ([6]; pH 6.8, 30° C.): 500 µg/mL (≈ 1530 µM); MIC [8, 26]: 100 µg/mL (≈ 305 µM); MIC ([8]; pH 8.2, nutrient agar, 30° C., 48 hours, read-out: Minimum Inhibitory Concentration, Kp): > 500 µg/mL
